From US20210085630A1, “PHARMACEUTICAL COMPOSITION AND USE THEREOF IN PREPARING DRUG FOR TREATING TUMOR MULTI-DRUG RESISTANCE” (SICHUAN JIUZHANG BIOLOGICAL SCIENCE AND TECHNOLOGY CO., LTD., priority 2018, published 2021)

Tests used:
[1] = test system: CD4+T and CD8+T lymphocytes; assay: Number of CD4+T and CD8+T lymphocytes in transplanted tumor of multidrug-resistant Lewis lung cancer mice; assay type: in vivo; settings: average of 6 high power fields
Method: (§1) The number of CD4+T and CD8+T lymphocytes was analyzed by immunofluorescence staining, and the average number of CD4+T and CD8+T cells infiltrated in 6 high power fields was counted.

[2] = test system: drug-resistant A375 melanoma cell lines; assay: Reversal of dacarbazine resistance in drug-resistant A375 cells (MTT); assay type: cell-based, human; settings: test drug 30 μg/ml; for Reversal index: IC50 before reversal/IC50 after reversal, drug-resistant A375
Method: The culture and experimental methods of cells were the same as above.
In the experiment, there are following groups: drug-resistant cell negative group, drug-resistant cells+test drug group 1 (30 μg/ml), drug-resistant cells+test drug group 2 (30 μg/ml), drug-resistant cells+test drug group 3 ([…]), drug-resistant cells+test drug group 4 (30 μg/ml), drug-resistant cells+test drug group 5 (30 μg/ml), drug-resistant cells+test drug group 6 (30 μg/ml).
Each test drug group was added with different concentrations of dacarbazine, each concentration including 3 replicate wells, and the OD value of each well was measured, to observe whether the cytotoxicity was shown. Each test drug and dacarbazine were respectively used to act on drug resistant cells, so as to compare with the effects of dacarbazine administrated alone on drug-resistant cells, and the IC50 value of dacarbazine against drug-resistant cell lines was calculated, as well as the IC50 value of each test drug after reversing drug-resistant cell lines.
Reversal index=IC50 value before reversal/IC50 value after reversal.

[3] = test system: dacarbazine-resistant B16 melanoma; assay: Tumor weight and inhibition rate, transplanted dacarbazine-resistant B16 melanoma; assay type: in vivo; settings: dacarbazine-resistant B16 melanoma mice; test drug 30 mg/kg i.p. once a day 5 days, then dacarbazine 60 mg/kg every other day; positive drug dacarbazine 60 mg/kg
Method: B16 melanoma cell lines were induced by the increased gradient concentration of dacarbazine, and established by clone screening and cultured without drug before the experiment.
(§2) After the drug was removed from the drug-resistant cell lines, the cell concentration was adjusted to 1×10^7/ml with the culture medium. 1×10^7/ml of cells were subcutaneously injected into the right armpit of mice, 0.1 ml per mouse.
(§3) After the average diameter of tumor reached […], the mice were randomly divided into test drug group 1, test drug group 2, test drug group 3, test drug group 4, test drug group 5, test drug group 6, positive drug group, and negative group, respectively.
(§4) Test drug group: the test drug group was first intraperitoneally injected, once a day, 30 mg/kg/time, for 5 consecutive days; administration was stopped, and the positive drug was given by intraperitoneal injection on the next day; wherein the positive drug dacarbazine was administrated once every other day, 60 mg/kg/time; wherein the positive drug gemcitabine was given once every other day, 300 mg/kg/time.
(§5) Positive drug group: positive drug dacarbazine was given once every other day, 60 mg/kg/time; positive drug gemcitabine was given once every other day, 300 mg/kg/time.
(§6) Negative group: normal saline was intraperitoneally injected, once a day, for 15 consecutive days.
(§7) After completion of administration, the experiment was stopped, and the mice were killed by cervical dislocation and weighed. The tumor was stripped and weighed, to calculate the tumor inhibition rate.

[4] = test system: multi-drug resistant Lewis lung cancer; assay: Tumor weight and inhibition rate, transplanted multi-drug resistant Lewis lung cancer; assay type: in vivo, mice; settings: multi-drug resistant Lewis lung cancer mice; test drug 30 mg/kg i.p. 5 days, then gemcitabine 300 mg/kg or dacarbazine 60 mg/kg every other day
Method: Lewis lung cancer cell lines were induced by the increased gradient concentration of dacarbazine and gemcitabine, and established by clone screening, then cultured without drug before the experiment.
as §2, §3, §4, §5, §6, §7

[5] = test system: Opdivo-resistant Lewis lung cancer; assay: Antitumor effect (tumor volume, weight, inhibition rate) in Opdivo-resistant Lewis lung cancer mice; assay type: in vivo; settings: for Tumor volume (cm^3): 30 mg/kg i.p. once a day, + Opdivo groups: test drug 5 days, then Opdivo 30 mg/kg every other day; for Tumor inhibition rate (%) / Tumor weight: 30 mg/kg i.p., + Opdivo groups 30 + 30 mg/kg
Method: The concentration of cell lines was adjusted to 1×10^7/ml with the culture medium. 1×10^7/ml of cells were subcutaneously injected into the right armpit of mice, 0.1 ml per mouse.
The model mice were randomly divided into groups, eight for one group, and included test drug group 1, test drug group 2, test drug group 3, test drug group 4, positive drug Opdivo group, single drug chlorogenic acid group, test drug 1+Opdivo group, test drug 2+Opdivo group, test drug 3+Opdivo group, test drug 4+Opdivo group, and negative group, respectively.
Test drug group: from the second day after stopping administration to the model, the group received drug by intraperitoneal injection, once a day, 30 mg/kg.
Single drug group: from the second day after stopping administration to the model, the group received drug by intraperitoneal injection, once a day, 30 mg/kg.
Test drug+Opdivo group: from the second day after stopping administration to the model, the group received the test drug by intraperitoneal injection, once a day, and the test drug was stopped after administrating for 5 consecutive days; on the next day, Opdivo was intraperitoneally injected, once every other day, with the dosage of 30 mg/kg.
Positive drug group: once every other day, 30 mg/kg.
Negative group: normal saline was intraperitoneally injected, once a day, the same amount of saline.
Before each administration, the tumor volume was measured, and the experiment was stopped when the average tumor volume of negative group was greater than 1.5 cm^3.
as §7

[6] = test system: CD4+T and CD8+T lymphocytes; assay: Number of CD4+T and CD8+T cells (immunofluorescence), drug-resistant Lewis lung cancer transplanted tumor; assay type: in vivo; settings: transplanted tumor of drug-resistant Lewis lung cancer in mice, average of 6 high power fields
Method: as §1

PD-1/PD-L1 [7] = assay: PD-1/PD-L1 expression rate (immunohistochemical SP method), drug-resistant Lewis lung cancer tumor tissue; assay type: in vivo; settings: transplanted tumor tissues of drug-resistant Lewis lung cancer in mice, Example 3 regimen
Excerpt: (§8) The positive expression rate of PD-1/PD-L1 in tumor tissues was detected by immunohistochemical SP method.

PD-1/PD-L1 [8] = assay: PD-1/PD-L1 expression rate in tumor tissues of Opdivo-resistant B16 melanoma mice; assay type: in vivo; settings: tumor tissues of drug-resistant (Opdivo) B16 melanoma mice
Excerpt: as §8

[9] = test system: drug-resistant A549 lung cancer cell lines; assay: Reversal of gemcitabine resistance in drug-resistant A549 cells (MTT); assay type: cell-based, human; settings: test drug 30 μg/ml; for Reversal index: IC50 before reversal/IC50 after reversal, drug-resistant A549
Method: The culture and experimental methods of cells were the same as above. In the experiment, there are following groups: drug-resistant cell negative group, drug-resistant cells+test drug group 1 (30 μg/ml), drug-resistant cells+test drug group 2 (30 μg/ml), drug-resistant cells+test drug group 3 (30 μg/ml), drug-resistant cells+test drug group 4 (30 μg/ml), drug-resistant cells+test drug group 5 (30 μg/ml), drug-resistant cells+test drug group 6 (30 μg/ml). Each test drug group was respectively added with different concentrations of gemcitabine, each concentration including 3 replicate wells, and the OD value of each well was measured, to observe whether the cytotoxicity was shown. Each test drug and gemcitabine were respectively used to act on drug resistant cells, so as to compare with the effects of gemcitabine administrated alone on drug-resistant cells, and the IC50 value of gemcitabine against drug-resistant cell lines was calculated, as well as the IC50 value of each test drug after reversing drug-resistant cell lines. Reversal index=IC50 value before reversal/IC50 value after reversal.

[10] = test system: CD4+T and CD8+T lymphocytes; assay: Number of CD4+T and CD8+T cells in Opdivo-resistant B16 melanoma mice; assay type: in vivo; settings: drug-resistant (Opdivo) B16 melanoma mice, average of 6 high power fields
Method: as §1

O=C(/C=C/c1ccc(O)c(O)c1)O[C@@H]1C[C@](O)(C(=O)O)C[C@@H](O)[C@H]1O [Chlorogenic acid, chlorogenic acid]
CD4 + T cells (number) [1]: 79.24 ± 4.06 | CD8 + T cells (number) [1]: 126.52 ± 11.85 | Reversal index [2]: 1.17 | reversal effect on the drug-resistant A375 cell lines (in words) [2]: no significant reversal effect | Tumor inhibition rate (%) [3]: 19.32% | Tumor weight (g) [3]: 2.13 ± 0.52*Δ g | Tumor weight [4]: 1.92 ± 0.69 g | Tumor-inhibition rate (%) [4]: 18.64% | continuous treatment effect / effect on tumor volume control (in words) [5]: not obvious | Tumor volume (cm^3) [5]: 1.592 ± 0.704 cm^3 | Tumor inhibition rate (%) [5]: 3.18% | Tumor weight [5]: 2.46 ± 0.72 g | CD4 + T cells (number) [6]: 80.63 ± 5.08 | CD8 + T cells (number) [6]: 106.62 ± 6.88 | Expression rate of PD-1/PD-L1, Positive PD-L1 (PD-1/PD-L1 [7]): 81.83% | Expression rate of PD-1/PD-L1, Positive PD-L1 (PD-1/PD-L1 [8]): 83.41% | Reversal index [9]: 1.13 | reversal effect on the drug-resistant A549 cell lines (in words) [9]: no significant reversal effect | CD4 + T cells (number) [10]: 74.63 ± 6.35 | CD8 + T cells (number) [10]: 89.42 ± 2.52

O=C(/C=C/c1ccc(O)cc1)O[C@@H]1C[C@](O)(C(=O)O)C[C@@H](O)[C@H]1O [Coumaroylquinic acid, coumaroylquinic acid]
CD4 + T cells (number) [1]: 79.11 ± 5.36 | CD8 + T cells (number) [1]: 122.08 ± 14.36 | Reversal index [2]: 1.06 | reversal effect on the drug-resistant A375 cell lines (in words) [2]: no significant reversal effect | Tumor inhibition rate (%) [3]: 15.91% | Tumor weight [3]: 2.22 ± 0.26 g | Tumor weight [4]: 2.15 ± 0.72 g | Tumor-inhibition rate (%) [4]: 8.90% | Tumor volume (cm^3) [5]: 1.584 ± 0.424 cm^3 | Tumor inhibition rate (%) [5]: 3.88% | Tumor weight [5]: 2.48 ± 0.55 g | CD4 + T cells (number) [6]: 78.75 ± 6.39 | CD8 + T cells (number) [6]: 98.53 ± 4.98 | Expression rate of PD-1/PD-L1, Positive PD-L1 (PD-1/PD-L1 [7]): 79.23% | Expression rate of PD-1/PD-L1, Positive PD-L1 (PD-1/PD-L1 [8]): 82.87% | Reversal index [9]: 1.10 | reversal effect on the drug-resistant A549 cell lines (in words) [9]: no significant reversal effect | CD4 + T cells (number) [10]: 75.09 ± 5.23 | CD8 + T cells (number) [10]: 88.26 ± 5.36
